Test [1] deals with ICR mice. Description: Forced swimming test (FST), Example 38. Format: in vivo. As to conditions: gavage 10 mg/Kg for 6 days, t-test. From the text:
Forced swimming test (FST) to investigate the antidepressant activity of some compounds and some natural products of the present invention
(§1) Male ICR mice (body weight, 20±2 g) used in the experiment were purchased from the Experimental Animal Center of Shanghai Institute of Materia Medica, Chinese Academy of Sciences. They were free access to water and kept at room temperature (23 2) ° C. in natural light. All mice were randomly divided into a blank control group and a test group, with 10 mice in each group and 5 mice/cage. The experiment was started after 3 days of adaptation in the breeding environment. The mice were fasted for 12 hours before the experiment but free access to water. The specific administration method was gavage administration, and the administration dose of the administration group was 10 mg/Kg, and the blank control group was given an equal volume of 0.5% CMC-Na.
Specific procedures: The mice were continuously administered for 6 days, and tested 1 hour after the last administration. Firstly, the spontaneous activity of the mice was measured by the open field method, that is, the mice were individually placed in a cylindrical glass jar for 4 minutes, and the number of lifting arms within the last two minutes was recorded. The mice were then individually placed in a cylindrical glass jar (20 cm high and 14 cm in diameter) with a water depth of 10 cm and a water temperature of 23° C. to 25° C. After mice entered into water, a 6-minute timing was conducted, the cumulative immobility time (the criteria for determining immobility: the mice stopped struggling in the water, or floated with only small limb movements to keep the head float on the water) within the last four minutes was recorded. Each group of mice was operated in parallel.
Experimental data processing: The experimental results were expressed as mean standard error (x SD). Statistical analysis was performed using t-test to determine whether it was significant. […] Then, the t-test was performed on the experimental index of forced swimming to determine whether it had antidepressant effect.

Test [2] has as its system ICR mice. Description: Tail suspension test (TST), Example 39. Format: in vivo. As to conditions: gavage 10 mg/Kg for 6 days, t-test.
Description: Tail Suspension Test (TST) to Investigate the Antidepressant Activity of Some Compounds and Some Natural Products of the Present Invention
as §1, with “dose” for “dose of the administration group”
Specific procedures: The mice were continuously administered for 6 days, and tested 1 hour after the last administration. Firstly, the spontaneous activity of the mice was measured by the open field method, that is, the mice were individually placed in a cylindrical glass jar for 4 minutes, and the number of lifting arms within the last 2 minutes was recorded. Then the tail of the mice was stick onto the horizontal bar by the tape at 2 cm from the tip of the tail, and the animal eyesight was separated by the surrounding plates. The horizontal bar was about 25 cm from the ground, so that the mouse was about 10 cm from the ground, and the timing was 6 min. The cumulative immobility time within the last 4 minutes was recorded. Each group of mice was operated in parallel.
Experimental data processing: The experimental results were expressed as mean standard error (x SD). Statistical analysis was performed using t-test to determine whether it was significant. […] Then, the t-test was performed on the experimental index of tail suspension test to determine whether it had antidepressant effect.

Turning to `C[C@H]1CC[C@@]2(OC1)O[C@H]1C[C@H]3[C@@H]4CC[C@@H]5C[C@H](NC(=O)Nc6ccccc6)CC[C@]5(C)[C@H]4CC[C@]3(C)[C@H]1[C@@H]2C` [compound C-13], the “effect on immobility time of mice in forced swimming test compared with the blank group (in words)” value with ICR mice [1] is reported as “significantly reduce the immobility time”.
On to `COC(=O)C1(NC(=O)N[C@@H]2CC[C@@]3(C)[C@H](CC[C@@H]4[C@@H]3CC[C@]3(C)[C@@H]5[C@H](C[C@@H]43)O[C@]3(CC[C@H](C)CO3)[C@H]5C)C2)CCCCC1` [compound C-19], for which the “effect on immobility time of mouse in tail suspension test compared with the blank group (in words)” value in the test on ICR mice [2] is recorded as “certain antidepressant activity”.
For `C[C@H]1CC[C@@]2(OC1)O[C@H]1C[C@H]3[C@@H]4CC[C@@H]5C[C@@H](O)CC[C@]5(C)[C@H]4CC[C@]3(C)[C@H]1[C@@H]2C` [sarsasapogenin, reference compound], in the test with ICR mice [1], the “effect on immobility time of mice in forced swimming test compared with the blank group (in words)” value is “could not significantly reduce the immobility time”. Moreover, the “effect on immobility time of mouse in tail suspension test compared with the blank group (in words)” value in the test with ICR mice [2] is recorded as “could not significantly reduce the immobility time”.
Take `C[C@H]1CC[C@@]2(OC1)O[C@H]1C[C@H]3[C@@H]4CC[C@@H]5C[C@H](NC(=O)N(CCO)C6CCCCC6)CC[C@]5(C)[C@H]4CC[C@]3(C)[C@H]1[C@@H]2C` [compound C-35]: in the test on ICR mice [2], the “effect on immobility time of mouse in tail suspension test compared with the blank group (in words)” value is “significantly reduce the immobility time”.
Take `C[C@H]1CC[C@@]2(OC1)O[C@H]1C[C@H]3[C@@H]4CC[C@@H]5C[C@H](NC(=O)NN6CCOCC6)CC[C@]5(C)[C@H]4CC[C@]3(C)[C@H]1[C@@H]2C` [compound C-7]: the “effect on immobility time of mouse in tail suspension test compared with the blank group (in words)” value in the test with ICR mice [2] was “certain antidepressant activity”.
As to `C[C@H](CO)CC[C@H]1O[C@H]2C[C@H]3[C@@H]4CC[C@@H]5C[C@H](NC(=O)NC6CCCCC6)CC[C@]5(C)[C@H]4CC[C@]3(C)[C@H]2[C@@H]1C` [compound C-23], the “effect on immobility time of mice in forced swimming test compared with the blank group (in words)” value in the test on ICR mice [1] is “certain antidepressant activity”.
Take `C[C@H]1CC[C@@]2(OC1)O[C@H]1C[C@H]3[C@@H]4CC[C@@H]5C[C@H](NC(=O)NC6CCC(O)CC6)CC[C@]5(C)[C@H]4CC[C@]3(C)[C@H]1[C@@H]2C` (stereo partly shown) [compound C-5]: in the test with ICR mice [2], the “effect on immobility time of mouse in tail suspension test compared with the blank group (in words)” value was “certain antidepressant activity”.
Turning to `C[C@H]1CC[C@@]2(OC1)O[C@H]1C[C@H]3C4CC[C@@H]5C[C@@H](O[C@@H]6OC(CO)[C@H](O)[C@H](O)C6O)CC[C@]5(C)C4CC[C@]3(C)C1[C@@H]2C` (stereo partly shown) [timosaponin A1, reference compound], the “effect on immobility time of mice in forced swimming test compared with the blank group (in words)” value in the test with ICR mice [1] was “could not significantly reduce the immobility time”. The “effect on immobility time of mouse in tail suspension test compared with the blank group (in words)” value with ICR mice [2] is given as “could not significantly reduce the immobility time”.

These data come from patent publication US11142543B2 (priority 2016, dated 2021).
